Structures can show the parent of a compound that is named as a salt.
How the values were obtained:
[1] = tested on: herpetic keratoconjunctivitis; assay: Example 2: clinical treatment of herpetic keratitis; assay type: in vivo, subjects
Source text: These re-occurrences of acute episodes were, however, mastered with three-week cycles of treatment using the drug in question, with three-week rest intervals between one cycle and another.

herpes progenitalis = assay: Example 4: treatment of herpes progenitalis in a serious form (single case); assay type: in vivo, person
Method: The patient took 5 mg/day of yohimbine HCI for more than one year with three-week rest intervals every three months, using a galenical preparation consisting of: […]

herpes virus 1 or 2 = assay: Example 1: clinical treatment of herpes; assay type: in vivo; conditions: 5 mg/day; 30 patients
Method: In the course of 7 years, 30 patients suffering from herpes virus 1 or 2 were treated, the said patients still being currently under supervision.
The treatment involved the use of 5 mg/day of yohimbine HCI until resolution of the dermatological affections.

influenza = assay: Example 3: clinical treatment of influenza syndromes; assay type: in vivo; conditions: 5 mg/day, 7-10 day treatment; including elderly patients and children
HSV-1 = conditions: against HSV-1 in their screening system; cited from earlier work
[2] = Doses effective as antiviral agent (general finding); assay type: in vivo; conditions: expressed as free base
Method: The preferred dosage is 5 mg/day from the onset of the first signs of the viral infection up to its cure. In the case of long courses of treatment, it is preferable to follow a scheme of two- or three-month cycles with intervals of rest of 10-15 days. Higher doses than the range indicated may result in a failure of the curative effect, this being due to the peculiarity of yohimbine, observed on various organs and apparatus, namely of stimulating an action (for example, splenocontraction) at a certain dose level, and the opposite action (splenodilation) at higher dose levels. Doses below the limit indicated may be therapeutically ineffective.

With `Nc1nc2c(ncn2COCCO)c(=O)[nH]1` [acyclovir] the “benefit in terms of recidivation” value ([1]; earlier classic treatment of the same 10 subjects) was “without any benefit” and the “outcome of earlier treatment” value (herpes progenitalis; earlier treatment with specific drugs) was “unsuccessfully”.

In the case of `COC(=O)[C@@H]1[C@H]2C[C@H]3c4[nH]c5ccccc5c4CCN3C[C@@H]2CC[C@@H]1O` [yohimbine HCI, yohimbine hydrochloride], the relapse ([1]; 5 mg/day, 10 subjects) is reported as “the cases of relapse were less frequent and of shorter duration”, the pain ([1]; 5 mg/day, in periods when the affection became more acute) is reported as “the pain involved became more tolerable” and the tolerability of treatment ([1]; treatment lasting several years, three-week cycles) is reported as “without any problems of any sort arising”. The relapse (herpes virus 1 or 2) was “considerable reduction in the number of cases of relapse”, the outcome of influenza (influenza) was “complete resolution” and the antiherpes activity (HSV-1) was “inactive”. The side effect (herpes progenitalis; 5 mg/day for more than one year) was “did not reveal any side effect”, the “lesions and vesicular eruptions” value (herpes progenitalis; 5 mg/day tablet, three-week rest intervals every three months) was “within approximately six months led to the disappearance of the lesions and of the vesicular eruptions” and the recurrence (herpes progenitalis; follow-up after treatment) was “Only one other slight episode of recurrence occurred five years later”.

For `COC(=O)[C@@H]1[C@H]2C[C@H]3c4[nH]c5ccccc5c4CCN3C[C@@H]2CC[C@@H]1O` [yohimbine, methyl 17-alpha-hydroxy-20-alpha-yohimban-16-beta-carboxylate], the “doses at which yohimbine is effective as antiviral agent” value [2] was 3 to 10 mg/day.

Source: patent publication EP1086695B1, “Antiviral compositions comprising yohimbine as active principle” (Leone, Enzo, priority 1999, dated 2001)
